Data set [1] is described as follows: Encapsulation efficiency, RiboGreen RNA quantitation assay (CA HA modFlu mRNA LNPs). The class given is physicochemical. The following applies: LNP with CA HA modFlu mRNA. The procedure:
(§1) Lipid nanoparticles were prepared and tested according to the general procedures described in U.S. Pat. No. 9,737,619 (PCT Pub. No. WO2015/199952) and U.S. Pat. No. 10,166,298 (PCT Pub. No. WO 2017/075531) and PCT Pub. No. WO2020/146805. The novel ionizable lipids of the invention, cholesterol, distearoylphosphatidylcholine (DSPC) and ALC-0159 2-[(polyethylene glycol)-2000]-N,N ditetradecylacetamide were solubilized in ethanol at a molar ratio of about 46.3:42.7:9.4:1.6. Lipid nanoparticles were made by mixing the lipids containing organic phase with the mRNA containing aqueous phase using an N:P ratio of about 6:1. The mRNA was diluted in buffer. Syringe pumps were used to mix the ethanolic lipid solution with the mRNA aqueous solution. The ethanol was then removed, and the external buffer replaced with another buffer (e.g., Tris) by dialysis. Finally, the lipid nanoparticles were filtered.
(§2) Total RNA concentration and encapsulation efficiency was assessed using the RiboGreen RNA quantitation assay. RNA integrity pre and post formulation was monitored by Agilent Fragment Analyzer capillary gel electrophoresis. Malvern Zetasizer dynamic light scattering (DLS) was used to determine LNP size and polydispersity index (PDI). In vitro expression of the novel ionizable lipid nanoparticles was assessed in HEK293F and Hela cells similar to described in Example 72. Nuclear count and identification of cells stained positive for gene of interest was done on an Opera Phenix high content imager (PerkinElmer, USA).

Data set [2] concerns HEK293F cells. Nature of the data set: In vitro expression of novel ionizable lipid nanoparticles, high content imaging (CA HA modFlu mRNA). In kind it is cell-based. Conditions: LNP with CA HA modFlu mRNA. The procedure:
(§3) Plated Hek293T or Hela cells were dosed with lipid nanoparticles in a total volume of 40 μl cell culture media and incubated overnight at 37° C. and 5% CO2. After fixation with 4% paraformaldehyde in PBS cells were washed in PBS containing 0.3% Triton-X100 and 3% BSA (w/v), followed by nuclear staining with Hoechst and antibody staining for the encoded gene of interest. Nuclear count and identification of cells stained positive for gene of interest was done on an Opera Phenix high content imager (PerkinElmer, USA).
as §1, §2

Data set [3] concerns Hela cells. The data set is described as above. The class given is cell-based. Conditions: LNP with CA HA modFlu mRNA. The procedure:
as §3, §1, §2

Data set [4] is described as follows: LNP size and polydispersity index by Malvern Zetasizer dynamic light scattering (CA HA modFlu mRNA LNPs). Conditions: DLS; for Size (nm): LNP of the ionizable lipid:cholesterol:DSPC:ALC-0159 about 46.3:42.7:9.4:1.6, N:P about 6:1, CA HA modFlu mRNA; for PDI: LNP with CA HA modFlu mRNA. The class given is physicochemical. As to the method:
as §1, §2

In turn, `CCCCCCCC(CCCCCCC)C(=O)O[C@H]1CC2(CCN(CCCCO)CC2)C[C@@H]1OC(=O)C(CCCCCCC)CCCCCCC` (single isomer, unassigned) [Example 58, (2S*,3S*)-8-(4-hydroxybutyl)-8-azaspiro[4.5]decane-2,3-diyl bis(2-heptylnonanoate)] registered an EE % in data set [1] of 98%. The “EC50 Hek293F (ng/well)” value in data set [2] came out at 1.6 ng/well. Besides, the “EC50 Hela (ng/well)” value in data set [3] worked out at 1.7 ng/well. For the same compound, in data set [4], the “Size (nm)” value was determined as 79 nm and the PDI came out at 0.125.

With `CCCCCCCCC(C(=O)OCC(COC(=O)C(CCCCCCCC)C1CCC1)N1CCC2(CCN(CCCCO)CC2)CC1)C1CCC1` (centres unmarked) [Example 4, 2-(9-(4-hydroxybutyl)-3,9-diazaspiro[5.5]undecan-3-yl)propane-1,3-diyl bis(2-cyclobutyldecanoate)], the EE % in data set [1] amounted to 98%. The “EC50 Hek293F (ng/well)” value in data set [2] stood at 46.9 ng/well. Besides, the “EC50 Hela (ng/well)” value in data set [3] is listed as above 50 ng/well. In data set [4], the “Size (nm)” value is given as 97 nm and the PDI came to 0.170.

`CCCCCCCCC(CCCCCC)C(=O)OCC(COC(=O)C(CCCCCC)CCCCCCCC)N1CCC2(CCN(CCCCCO)CC2)CC1` (centres unmarked) [Example 5, 2-(9-(5-hydroxypentyl)-3,9-diazaspiro[5.5]undecan-3-yl)propane-1,3-diyl bis(2-hexyldecanoate)] had an EE % in data set [1] of 100%. In data set [2], the “EC50 Hek293F (ng/well)” value worked out at 1.32 ng/well. Also, the “EC50 Hela (ng/well)” value in data set [3] was found to be 4.3 ng/well. Besides, in data set [4], the “Size (nm)” value worked out at 136 nm and the PDI came out at 0.040.

Take `CCCCCCCCC(CCCCCC)C(=O)OCC(COC(=O)C(CCCCCC)CCCCCCCC)N1CCC2(CCN(CCCCO)C2)CC1` (centres unmarked) [Example 6, 2-(2-(4-hydroxybutyl)-2,8-diazaspiro[4.5]decan-8-yl)propane-1,3-diyl bis(2-hexyldecanoate)]: the EE % in data set [1] is listed as 100%. Besides, the “EC50 Hek293F (ng/well)” value in data set [2] is recorded as 0.42 ng/well. For the same compound, the “EC50 Hela (ng/well)” value in data set [3] amounted to 1.1 ng/well. For the same compound, in data set [4], the “Size (nm)” value was found to be 133 nm and the PDI was found to be 0.080.

In data set [1], `CCCCCCCCCCCCCCCC(=O)OCC(COC(=O)C(CCCCCC)CCCCCCCC)N1CCC2(CCN(CCCCO)CC2)CC1` (centres unmarked) [Example 7, 3-((2-hexyldecanoyl)oxy)-2-(9-(4-hydroxybutyl)-3,9-diazaspiro[5.5]undecan-3-yl)propyl palmitate] registered an EE % of 99%. In addition, the “EC50 Hek293F (ng/well)” value in data set [2] stood at 20.4 ng/well. Moreover, in data set [3], the “EC50 Hela (ng/well)” value is reported as 2.0 ng/well. In addition, in data set [4], the “Size (nm)” value was determined as 84 nm and the PDI is given as 0.130.

`CCCCCCCC(CCCCCCC)C(=O)OCC(COC(=O)C(CCCCCCC)CCCCCCC)N1CCC2(CCN(CCCNc3c(NC)c(=O)c3=O)CC2)CC1` [Example 8, 2-(9-(3-((2-(methylamino)-3,4-dioxocyclobut-1-en-1-yl)amino)propyl)-3,9-diazaspiro[5.5]undecan-3-yl)propane-1,3-diyl bis(2-heptylnonanoate)] came in with an EE % in data set [1] of 100%. In addition, the “EC50 Hek293F (ng/well)” value in data set [2] is recorded as 4.1 ng/well. Further, the “EC50 Hela (ng/well)” value in data set [3] was 2.5 ng/well. Further, in data set [4], the “Size (nm)” value came out at 68 nm and the PDI was 0.101.

For the compound `CCCCCCCCC(CCCCCC)C(=O)OCC(COC(=O)C(CCCCCC)CCCCCCCC)N1CCC2(CCN(CCCNC(=O)C3(C)CC3)CC2)CC1` (centres unmarked) [Example 9, 2-(9-(3-(1-methylcyclopropane-1-carboxamido)propyl)-3,9-diazaspiro[5.5]undecan-3-yl)propane-1,3-diyl bis(2-hexyldecanoate)], the EE % in data set [1] was 99%. Also, the “EC50 Hek293F (ng/well)” value in data set [2] was 2.6 ng/well. The “EC50 Hela (ng/well)” value in data set [3] was 4.2 ng/well. In addition, in data set [4], the “Size (nm)” value was found to be 96 nm and the PDI is 0.070.

For the origin of these results see patent US20250367129A1, “Lipid Compounds and Uses Thereof” (Pfizer Inc., priority 2022, published 2025).
